Source: the NIST ThermoML archive (doi:10.1016/j.fluid.2014.06.021)
± gives the expanded uncertainty stated by the source.

Assay: activity coefficient (dimensionless); of the first substance listed, at infinite dilution; xn = mol fraction of the nth substance listed
Settings: 101.33 kPa, Liquid, Chromatography, x1 = 0

| Structure (SMILES) | activity coefficient (323.15 K) | activity coefficient (333.15 K) | activity coefficient (343.15 K) |
| --- | --- | --- | --- |
| c1ccccc1 [benzene] + C[n+]1ccn(CCCCS(=O)(=O)O)c1.O=S(=O)([N-]S(=O)(=O)C(F)(F)F)C(F)(F)F | 1.95 ± 0.13 | 2.07 ± 0.14 | 2.15 ± 0.15 |
| CCCCCCCCCCCC [dodecane] + C[n+]1ccn(CCCCS(=O)(=O)O)c1.O=S(=O)([O-])C(F)(F)F | 1490 ± 100 | 1020 ± 70 | 997 ± 69 |
| Cc1ccccc1 [toluene] + C[n+]1ccn(CCCCS(=O)(=O)O)c1.O=S(=O)([O-])C(F)(F)F | 5.74 ± 0.39 | 5.54 ± 0.38 | 5.54 ± 0.38 |
| ClCCl [dichloromethane] + C[n+]1ccn(CCCCS(=O)(=O)O)c1.O=S(=O)([O-])C(F)(F)F | 1.3 ± 0.08 | 1.46 ± 0.1 | 1.61 ± 0.11 |
| CCC(=O)CC [pentan-3-one] + C[n+]1ccn(CCCCS(=O)(=O)O)c1.O=S(=O)([O-])O | 14.2 ± 0.97 | 13.8 ± 0.94 | 13.2 ± 0.9 |
| Cc1ccccc1C [1,2-dimethylbenzene] + C[n+]1ccn(CCCCS(=O)(=O)O)c1.O=S(=O)([O-])C(F)(F)F | 8.26 ± 0.56 | 8.21 ± 0.56 | 7.97 ± 0.54 |
| CCCO [propan-1-ol] + C[n+]1ccn(CCCCS(=O)(=O)O)c1.O=S(=O)([N-]S(=O)(=O)C(F)(F)F)C(F)(F)F | – | 0.13 ± 0.03 | 0.16 ± 0.03 |
| ClC(Cl)(Cl)Cl [tetrachloromethane] + C[n+]1ccn(CCCCS(=O)(=O)O)c1.O=S(=O)([O-])C(F)(F)F | 12.4 ± 0.85 | 12.1 ± 0.83 | 11.4 ± 0.78 |
| c1ccsc1 [thiophene] + C[n+]1ccn(CCCCS(=O)(=O)O)c1.O=S(=O)([O-])C(F)(F)F | 2.24 ± 0.15 | 2.23 ± 0.15 | 2.22 ± 0.15 |
| C#CCCCCC [1-heptyne] + C[n+]1ccn(CCCCS(=O)(=O)O)c1.O=S(=O)([O-])C(F)(F)F | 25.9 ± 1.8 | 25.7 ± 1.8 | 24.8 ± 1.7 |
| CCCCCCCCCCCC [dodecane] + C[n+]1ccn(CCCCS(=O)(=O)O)c1.O=S(=O)([O-])O | 1310 ± 90 | 1200 ± 82 | 1140 ± 79 |
| ClC(Cl)Cl [trichloromethane] + C[n+]1ccn(CCCCS(=O)(=O)O)c1.O=S(=O)([O-])C(F)(F)F | 2.12 ± 0.14 | 2.18 ± 0.15 | 2.19 ± 0.15 |
| Cc1ccc(C)cc1 [1,4-dimethylbenzene] + C[n+]1ccn(CCCCS(=O)(=O)O)c1.O=S(=O)([O-])O | 56.6 ± 3.9 | 54.4 ± 3.7 | 50.6 ± 3.5 |
| CO [methanol] + C[n+]1ccn(CCCCS(=O)(=O)O)c1.O=S(=O)([N-]S(=O)(=O)C(F)(F)F)C(F)(F)F | 0.06 | 0.08 ± 0.03 | 0.09 ± 0.03 |
| CCC[N+](=O)[O-] [1-nitropropane] + C[n+]1ccn(CCCCS(=O)(=O)O)c1.O=S(=O)([O-])O | 7.05 ± 0.48 | 6.92 ± 0.47 | 6.82 ± 0.46 |
| CC#N [acetonitrile] + C[n+]1ccn(CCCCS(=O)(=O)O)c1.O=S(=O)([O-])O | 1.74 ± 0.12 | 1.73 ± 0.12 | 1.73 ± 0.12 |
| c1ccccc1 [benzene] + C[n+]1ccn(CCCCS(=O)(=O)O)c1.O=S(=O)([O-])O | 14.4 ± 0.98 | 12.5 ± 0.85 | 12.2 ± 0.83 |
| CCC(C)=O [butanone] + C[n+]1ccn(CCCCS(=O)(=O)O)c1.O=S(=O)([N-]S(=O)(=O)C(F)(F)F)C(F)(F)F | 0.24 ± 0.03 | 0.27 ± 0.03 | 0.3 ± 0.1 |
| CCOCC [diethyl ether] + C[n+]1ccn(CCCCS(=O)(=O)O)c1.O=S(=O)([O-])C(F)(F)F | 4.51 ± 0.31 | 4.36 ± 0.3 | 4.21 ± 0.29 |
| Cc1ccc(C)cc1 [1,4-dimethylbenzene] + C[n+]1ccn(CCCCS(=O)(=O)O)c1.O=S(=O)([N-]S(=O)(=O)C(F)(F)F)C(F)(F)F | 5.11 ± 0.35 | 5.47 ± 0.37 | 5.55 ± 0.38 |
| ClCCl [dichloromethane] + C[n+]1ccn(CCCCS(=O)(=O)O)c1.O=S(=O)([O-])O | 3.5 ± 0.24 | 3.48 ± 0.24 | 3.37 ± 0.23 |
| Cc1cccc(C)c1 [1,3-dimethylbenzene] + C[n+]1ccn(CCCCS(=O)(=O)O)c1.O=S(=O)([N-]S(=O)(=O)C(F)(F)F)C(F)(F)F | 5.19 ± 0.35 | 5.49 ± 0.37 | 5.57 ± 0.38 |
| CCO [ethanol] + C[n+]1ccn(CCCCS(=O)(=O)O)c1.O=S(=O)([N-]S(=O)(=O)C(F)(F)F)C(F)(F)F | – | 0.08 ± 0.03 | 0.1 |
| c1ccsc1 [thiophene] + C[n+]1ccn(CCCCS(=O)(=O)O)c1.O=S(=O)([N-]S(=O)(=O)C(F)(F)F)C(F)(F)F | 0.83 ± 0.05 | 0.83 ± 0.05 | 0.82 ± 0.05 |
